We go through two compounds from patent US10874646B2, “Epothilone analogs, methods of synthesis, methods of treatment, and drug conjugates thereof” (WILLIAM MARSH RICE UNIVERSITY, priority 2015, dated 2020).

The subject of experiment [1] is OVCAR-8. The experiment in a line: Cytotoxicity, standard NCI assay with sulforhodamine B, 96 h. The following applies: Homo sapiens, OVCAR-8, 96 h, read-out: cytotoxicity (GI50, nM ± SD) OVCAR-8.
For experiment [2], the system named is NCI-60 human cancer cell line panel. Nature of the experiment: NCI-60 initial one dose test. The experiment is classed as cell-based. The following applies: 10 μM. From the text: Biological evaluation. The synthesized epothilone analogues were submitted to the NCI for testing against the NCI-60 human cancer cell line panel (Shoemaker, 2006).
Experiment [3] deals with tubulin. Nature of the experiment: Induction/enhancement of tubulin assembly (Lin, et al., 1996). The following applies: 10 μM tubulin, 0.4M monosodium glutamate, 30 min at room temperature; Table 2; read-out: induction of tubulin assembly (EC50, μM ± SD). Type of experiment: biochemical.
Experiment [4] deals with MCF-7. The experiment in a line: Cytotoxicity, standard NCI assay with sulforhodamine B, 96 h. The note with it: Homo sapiens, MCF7, 96 h, read-out: cytotoxicity (GI50, nM ± SD) MCF-7.

In general, GI50 refers to the concentration giving 50% growth inhibition. The EC50 is the concentration giving half of the maximal effect. Take `CSc1cc(/C=C(\C)[C@@H]2C[C@@H]3O[C@]3(C)CCC[C@H](C)[C@H](O)[C@@H](C)C(=O)C(C)(C)[C@@H](O)CC(=O)O2)n(CCNC(=O)OC(C)(C)C)n1` [Compound 5]: the concentration for 50% growth inhibition (GI50) in experiment [1] amounted to 900 nM; in experiment [4], 1600 nM. In addition, the “activity in initial one dose test” value in experiment [2] is listed as “did not exhibit significant activity”. The EC50 in experiment [3] was more than 40 µM.
For `C/C(=C\c1cc(C(F)(F)F)nn1CCNC(=O)OCC[Si](C)(C)C)[C@@H]1C[C@@H]2O[C@]2(C)CCC[C@H](C)[C@H](O)[C@@H](C)C(=O)C(C)(C)[C@@H](O)CC(=O)O1` [Compound 7] the same measures were 1300 nM, 1800 nM, “did not exhibit significant activity” and more than 40 µM.
